The values below come from ChEMBL document CHEMBL6177996 (J Med Chem, 2025).

The series is described as follows: physchem. As to conditions: water.

Values after ≈ are worked out from the molar mass of the structure shown.

The solubility is how much of the substance goes into solution per volume. Read a high solubility as a readily soluble substance.

In turn, `C=CC(=O)NCc1cc(C(=O)NCc2c(SC)cc(C)[nH]c2=O)c(C)c(N(CC)C2CCOCC2)c1` showed a solubility of 0.166 mg/mL (≈ 324 µM).
